Source: the NIST ThermoML archive (doi:10.1016/j.jct.2014.11.007)

Test: mn = molality of the nth substance listed, in mol/kg
Conditions: 100 kPa, Liquid; for speed of sound: Frequency=3 MHz, Sing-around technique in a fixed-path interferometer; for mass density: Vibrating tube method

O=C([O-])Cc1ccccc1Nc1c(Cl)cccc1Cl.[Na+] [sodium diclofenac] + O
Conditions	mass density, 293.15 K [kg/m3]	mass density, 298.15 K [kg/m3]	mass density, 303.15 K [kg/m3]	mass density, 308.15 K [kg/m3]	mass density, 313.15 K [kg/m3]	speed of sound, 293.15 K [m/s]	speed of sound, 298.15 K [m/s]	speed of sound, 303.15 K [m/s]	speed of sound, 308.15 K [m/s]	speed of sound, 313.15 K [m/s]
m1 = 0.00165	998.454	997.297	995.899	994.285	992.465	1483.5	1497.6	1509.9	1520.6	1529.6
m1 = 0.00255	998.563	997.404	996.005	994.389	992.569	1483.7	1497.7	1510	1520.7	1529.7
m1 = 0.0027	998.582	997.423	996.023	994.407	992.587	1483.7	1497.7	1510	1520.7	1529.7
m1 = 0.00314	998.638	997.477	996.078	994.461	992.64	1483.7	1497.8	1510.1	1520.7	1529.8
m1 = 0.00352	998.687	997.527	996.125	994.508	992.687	1483.8	1497.8	1510.1	1520.8	1529.8
m1 = 0.00413	998.769	997.607	996.205	994.588	992.767	1483.9	1497.9	1510.2	1520.8	1529.8
m1 = 0.00504	998.896	997.733	996.33	994.71	992.886	1484	1498	1510.3	1520.9	1529.9
m1 = 0.00604	999.044	997.88	996.477	994.853	993.027	1484.1	1498.1	1510.4	1521	1530
m1 = 0.00698	999.192	998.027	996.618	994.995	993.169	1484.2	1498.2	1510.5	1521.1	1530.1
m1 = 0.00742	999.257	998.095	996.689	995.064	993.238	1484.3	1498.3	1510.6	1521.1	1530.1
